Data on 11 compounds can be found in ChEMBL document CHEMBL1201862, “PubChem BioAssay data set” (2004).

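Protocol summary: plate cells (96-well), add compound at 5 concentrations, incubate 48 h, interpolate endpoints linearly. Here, GI50 denotes the concentration required for 50% inhibition of growth.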 Calls of active or inactive are those of the source. Rule as the data show it: active = GI50 up to about 1.1 µM and inactive = higher. Some results are limits rather than exact numbers.

Some test systems named below: Malme-3M; SK-MEL-2; SF-268; MOLT-4; SR; HCC 2998; HCT-15; M14; NCI-H226; HL-60; HOP-92; TK-10; COLO 205; SF-539; OVCAR-3; RXF 393; SW-620; K562; NCI-H460; SK-OV-3.
Assay in all cases: inhibition of tumour cell growth, NCI panel, 48 h

As for `C[C@]12CC[C@H](OC(=O)Cc3ccc(N(CCCl)CCCl)cc3)CC1=CC[C@@H]1[C@@H]2CC[C@]2(C)C(=O)CC[C@@H]12`, the GI50 was > 100 µM (inactive) in the experiment with Malme-3M; > 100 µM (inactive) in the experiment on SK-MEL-2; > 100 µM (inactive) with SF-268; > 100 µM (inactive) in the experiment on MOLT-4; 3.61 µM (inactive) with SR; > 100 µM (inactive) with HCC 2998. Besides, the GI50 is greater than 100 µM in the experiment with HCT-15; > 100 µM (inactive) in the experiment with M14; > 100 µM (inactive) in the experiment with NCI-H226; > 100 µM (inactive) in the experiment on HL-60; > 100 µM (inactive) with HOP-92; > 100 µM (inactive) in the experiment with TK-10. Also, the GI50 in the experiment with COLO 205, in the experiment on SF-539, with OVCAR-3, in the experiment on RXF 393, in the experiment with SW-620 and with K562 was > 100 µM (inactive) in each case. Further, in the experiment with NCI-H460, the GI50 was > 100 µM (inactive).

`O=C(/C=C/c1ccccc1)Oc1cccc(O)c1`: the GI50 is > 100 µM (inactive) in the experiment on SK-OV-3; 19.5 µM (inactive) in the experiment on Malme-3M; > 100 µM (inactive) with SK-MEL-2; 15.5 µM (inactive) in the experiment on SF-268; 6.03 µM (inactive) with MOLT-4; 18.2 µM (inactive) in the experiment with SR. Moreover, the GI50 in the experiment with HCC 2998 is > 100 µM (inactive); in the experiment on HCT-15, 16.6 µM; in the experiment on M14 it was 43.1 µM (inactive); in the experiment on NCI-H226 it was > 100 µM (inactive); in the experiment with HL-60 it was 16.9 µM (inactive); in the experiment with HOP-92 it was > 100 µM (inactive). Besides, the GI50 in the experiment with TK-10 was > 100 µM (inactive); with COLO 205, 55 µM (inactive); in the experiment on SF-539, > 100 µM (inactive); in the experiment on OVCAR-3, 73.8 µM (inactive); in the experiment with RXF 393, > 100 µM (inactive); with SW-620 it was 18.3 µM (inactive). Further, the GI50 in the experiment with NCI-H460 is > 100 µM (inactive).

Take `CC1=C(C(=O)Nc2ccccc2C)C(c2ccc(Cl)c(Cl)c2)C(C(=O)Nc2ccccc2C)=C(C)N1`: the GI50 with SK-OV-3 was 22.9 µM (inactive); in the experiment on Malme-3M it was 22.5 µM (inactive); in the experiment on SK-MEL-2 it was 16.1 µM (inactive); in the experiment on SF-268, 20.3 µM (inactive); in the experiment with MOLT-4, 12.6 µM (inactive); in the experiment with SR it was 12.7 µM (inactive). For the same compound, the GI50 was 25.6 µM (inactive) with HCC 2998; 17.2 µM in the experiment with HCT-15; 16.6 µM (inactive) in the experiment on M14; 15.2 µM (inactive) in the experiment with NCI-H226; 15.1 µM (inactive) with HL-60; 14.4 µM (inactive) with HOP-92. Further, the GI50 is 21.7 µM (inactive) in the experiment on TK-10; 16.4 µM (inactive) in the experiment with COLO 205; 25.5 µM (inactive) in the experiment with SF-539; 17.6 µM (inactive) in the experiment with OVCAR-3; 20.1 µM (inactive) in the experiment with RXF 393; 31.6 µM (inactive) in the experiment on SW-620. Further, the figures for the GI50 in the experiment with K562 and in the experiment with NCI-H460 were 20.3 µM (inactive) and 15.8 µM (inactive), respectively.

Turning to `NCCCCNCCCNC(=O)c1nc(-c2nc(CCN)sc2Cl)sc1Cl`, the GI50 is > 100 µM (inactive) in the experiment on SK-OV-3; 58.6 µM (inactive) in the experiment with Malme-3M; 6.98 µM (inactive) with SF-268; > 100 µM (inactive) in the experiment on MOLT-4; 6.87 µM (inactive) in the experiment on SR; > 100 µM (inactive) in the experiment with HCC 2998. In addition, the GI50 with HCT-15 was greater than 100 µM; in the experiment on M14 it was 70.1 µM (inactive); in the experiment with NCI-H226 it was > 100 µM (inactive); in the experiment on HL-60, > 100 µM (inactive); with HOP-92 it was > 100 µM (inactive); in the experiment on TK-10 it was > 100 µM (inactive). For the same compound, the GI50 in the experiment on COLO 205 was > 100 µM (inactive); in the experiment with SF-539, 48.8 µM (inactive); in the experiment with OVCAR-3 it was > 100 µM (inactive); with RXF 393, 12.4 µM (inactive); with SW-620, 16.7 µM (inactive); with K562, 9.35 µM (inactive). Also, the GI50 with NCI-H460 is 27.7 µM (inactive).

Consider `O=c1cnn(C/C=C\CO)c(=O)[nH]1`, for which the GI50 in the experiment on Malme-3M was > 100 µM (inactive); with SK-MEL-2, > 100 µM (inactive); in the experiment with SF-268, > 100 µM (inactive); in the experiment on SR it was > 100 µM (inactive); with HCC 2998 it was > 100 µM (inactive); in the experiment with HCT-15 it was greater than 100 µM. The GI50 was > 100 µM (inactive) in the experiment with M14; > 100 µM (inactive) with NCI-H226; > 100 µM (inactive) with HL-60; > 100 µM (inactive) in the experiment on HOP-92; 75.2 µM (inactive) in the experiment with TK-10; > 100 µM (inactive) in the experiment with COLO 205. The GI50 in the experiment on SF-539, with OVCAR-3, in the experiment on RXF 393, with SW-620, with K562 and in the experiment with NCI-H460 was > 100 µM (inactive) throughout.

Turning to `CCCCCCOP(=O)(OCCCCCC)C(NC(=O)OCC)(C(F)(F)F)C(F)(F)F`, the GI50 with SK-OV-3 is 29 µM (inactive); in the experiment on Malme-3M, 34.4 µM (inactive); in the experiment on SK-MEL-2, 22.9 µM (inactive); with SF-268 it was 40.6 µM (inactive); with MOLT-4 it was > 100 µM (inactive); in the experiment on SR, 50.8 µM (inactive). Further, the GI50 in the experiment on HCC 2998 is > 10 µM (inactive); in the experiment on HCT-15, 30.4 µM; in the experiment with M14 it was 32 µM (inactive); with NCI-H226 it was 24.9 µM (inactive); in the experiment with HL-60 it was > 100 µM (inactive); with HOP-92 it was 28.4 µM (inactive). For the same compound, the GI50 in the experiment on TK-10 is 43.7 µM (inactive); with COLO 205, 16.6 µM (inactive); with SF-539 it was 36.3 µM (inactive); with OVCAR-3, 45.1 µM (inactive); with RXF 393 it was 11.7 µM (inactive); with SW-620 it was 33.3 µM (inactive). The values for the GI50 with K562 and in the experiment on NCI-H460 were 39.4 µM (inactive) and 30.3 µM (inactive), respectively.

Take `CCOC(=O)N/N=C(/N)Cc1ccccc1`: the GI50 with SK-OV-3, in the experiment with Malme-3M, in the experiment on SK-MEL-2, in the experiment with SF-268, in the experiment with MOLT-4 and in the experiment with SR was > 100 µM (inactive) each time. Moreover, the GI50 is > 100 µM (inactive) in the experiment with HCC 2998; greater than 100 µM in the experiment on HCT-15; > 100 µM (inactive) in the experiment with M14; > 100 µM (inactive) in the experiment on HL-60; > 100 µM (inactive) in the experiment on HOP-92; > 100 µM (inactive) with TK-10. Moreover, the GI50 in the experiment on COLO 205, in the experiment with SF-539, with OVCAR-3, in the experiment with RXF 393, in the experiment on SW-620 and in the experiment on K562 was > 100 µM (inactive) each time. In the experiment on NCI-H460, the GI50 is > 100 µM (inactive).

With `CSc1nc2c(c(=O)n1C)N=C(c1ccc(Cl)cc1)CC(c1ccccc1)N2` (configuration not stated), the GI50 with SK-OV-3 was 29.4 µM (inactive); in the experiment with Malme-3M it was 16.1 µM (inactive); in the experiment with SK-MEL-2, 13.9 µM (inactive); in the experiment with MOLT-4, 14.1 µM (inactive); in the experiment on SR it was 29.9 µM (inactive); in the experiment on HCC 2998, 24.6 µM (inactive). In addition, the GI50 with M14 is 17.5 µM (inactive); in the experiment on NCI-H226 it was 17.6 µM (inactive); with HL-60 it was 29 µM (inactive); in the experiment with HOP-92 it was 33.8 µM (inactive); in the experiment on COLO 205, 21.7 µM (inactive); in the experiment with SF-539, 17.9 µM (inactive). The GI50 in the experiment with OVCAR-3 was 33.7 µM (inactive); with RXF 393, 39.4 µM (inactive); with SW-620, 49 µM (inactive); in the experiment with K562 it was 20.7 µM (inactive).

As for `CCC(C)C(=O)c1c(O)c(C/C=C(\C)CCC=C(C)C)c(O)c2c(C(O)CC)cc(=O)oc12` (configuration not stated), the GI50 in the experiment with SK-OV-3 is 4.41 µM (inactive); in the experiment with Malme-3M it was 2.24 µM (inactive); in the experiment on SK-MEL-2, 1.62 µM (inactive); in the experiment on SF-268, 1.9 µM (inactive); in the experiment with MOLT-4, 1.59 µM (inactive); in the experiment on SR it was 1.31 µM (inactive). Further, the GI50 was 0.358 µM (active) in the experiment with HCC 2998; 3.31 µM (inactive) in the experiment with M14; 2.53 µM (inactive) in the experiment with NCI-H226; 1.46 µM (inactive) in the experiment with HL-60; 1.63 µM (inactive) in the experiment with HOP-92; 3.81 µM (inactive) with TK-10. Besides, the GI50 in the experiment on COLO 205 was 1.71 µM (inactive); in the experiment with SF-539, 1.67 µM (inactive); with OVCAR-3, 2.69 µM (inactive); in the experiment with RXF 393, 1.79 µM (inactive); with SW-620, 1.98 µM (inactive); with K562, 0.679 µM (active). For the same compound, the GI50 in the experiment with NCI-H460 is 2.3 µM (inactive).

In the case of `Cc1cccc(NC(=S)N/N=C2\C(=O)Nc3ccccc32)c1`, the GI50 was > 100 µM (inactive) in the experiment on SK-OV-3; 66.1 µM (inactive) with Malme-3M; 70.6 µM (inactive) in the experiment on SK-MEL-2; 4.98 µM (inactive) in the experiment with SF-268; 59 µM (inactive) in the experiment with MOLT-4; 70.3 µM (inactive) in the experiment with SR. For the same compound, the GI50 is > 100 µM (inactive) in the experiment with HCC 2998; 73.8 µM with HCT-15; 60.8 µM (inactive) in the experiment on M14; > 100 µM (inactive) with NCI-H226; 67.8 µM (inactive) in the experiment on HL-60; > 100 µM (inactive) in the experiment with HOP-92. For the same compound, the GI50 was 78.3 µM (inactive) in the experiment with COLO 205; 48.3 µM (inactive) in the experiment with SF-539; 32.3 µM (inactive) with OVCAR-3; 30.1 µM (inactive) with RXF 393; > 100 µM (inactive) in the experiment with SW-620; 65.8 µM (inactive) with K562. Besides, the GI50 in the experiment on NCI-H460 is 48.3 µM (inactive).

As for `CN(C)CCC1(C2=CCCC2)CC/C(=C\c2ccccc2)C1=O` (configuration not stated), the GI50 in the experiment with Malme-3M was 15.7 µM (inactive); with SK-MEL-2 it was 16.4 µM (inactive); with SF-268, 21.5 µM (inactive); in the experiment with MOLT-4 it was 14.3 µM (inactive); in the experiment on SR, 25.2 µM (inactive); in the experiment with HCC 2998, 15.8 µM (inactive). For the same compound, the GI50 in the experiment on HCT-15 is 13 µM; in the experiment on M14, 16.4 µM (inactive); with NCI-H226 it was 16.9 µM (inactive); in the experiment with HL-60, 11.8 µM (inactive); in the experiment on HOP-92, 17.7 µM (inactive); in the experiment with TK-10, 15.6 µM (inactive). Besides, the GI50 with COLO 205 is 14.5 µM (inactive); in the experiment with SF-539, 16.6 µM (inactive); in the experiment with OVCAR-3, 15.2 µM (inactive); in the experiment with RXF 393 it was 12.5 µM (inactive); in the experiment on SW-620, 16.9 µM (inactive); with K562 it was 13.8 µM (inactive). The GI50 in the experiment with NCI-H460 was 15.9 µM (inactive).
